According to paper PMC12657457 (Frontiers in Pharmacology, 2025):
Structures can show the parent of a compound that is named as a salt. Where two headings read alike, the source gives them in different places.

What was measured:
Recombinant human AChE = target: T1, Recombinant human AChE (Homo sapiens, UniProt P22303); assay: Single-concentration screening, modified Ellman's assay (AChE); assay type: biochemical; conditions: 0.5 mM ATC
T1 construct: purchased Sigma-Aldrich C1682
Method: (§1) Propranolol hydrochloride and diltiazem hydrochloride were obtained from Sigma-Aldrich (St. Louis, MO, United States). The stock solution was prepared at 10 mM in DMSO. Acetylthiocholine iodide (ATC), butyrylthiocholine iodide (BTC), and 5,5′-dithiobis-(2-nitrobenzoic acid) (DTNB) were also purchased from Sigma-Aldrich. Recombinant human AChE (Cat. No. C1682) and pooled human plasma (source of BChE) were used as enzyme sources. The pooled human plasma was prepared as described before ([Vijayaraghavan et al., 2013]). Briefly, pooled plasma samples were prepared by combining equal volumes from a large cohort of patients clinically diagnosed with mild-to-moderate AD. All samples were collected prior to the initiation of any cholinesterase inhibitor treatment. An equal volume of glycerol was then added to the pooled plasma, thoroughly mixed, and aliquoted into small tubes. These aliquots were stored at -20 °C until used in the assay. Each aliquot was used only once to avoid any interference due to freeze-thaw cycles. All other reagents were of analytical grade.
Cholinesterase activity was measured using a modified Ellman’s colorimetric method adapted for high-throughput screening ([Kumar et al., 2017]; [2020]; [Darreh-Shori et al., 2024]). Assays were conducted in 384-well microplates. Briefly, 20 µL of buffer was initially added to all wells. Subsequently, 20 µL of enzyme solution was added to designated wells, while 20 µL of buffer without enzyme was added to the negative control wells. […] The plate reader (Tecan Infinite M1000) was configured for a 384-well transparent plate in absorbance mode at 412 nm, with kinetic reading taken over 10 min at 1-min intervals. Following incubation, 20 µL of Master Mix Buffer (MMB) cocktail was added to each well using a multichannel pipette, and the plate reading was initiated inmediately. […] Upon completion of the reading, the data file was saved, enzyme activity rates were extracted, and the data were analyzed. Enzyme activity was calculated from the slope of the linear portion of the absorbance-time curve.

human BChE = target: T2, human BChE (Homo sapiens, UniProt P06276); assay: IC50 determination against BChE in pooled human plasma (Ellman); assay type: biochemical
T2 construct: pooled human plasma (source of BChE) were used as enzyme sources; from tissue; host or cells: pooled human plasma from patients with mild-to-moderate AD
T2 sequence (P06276 29-602): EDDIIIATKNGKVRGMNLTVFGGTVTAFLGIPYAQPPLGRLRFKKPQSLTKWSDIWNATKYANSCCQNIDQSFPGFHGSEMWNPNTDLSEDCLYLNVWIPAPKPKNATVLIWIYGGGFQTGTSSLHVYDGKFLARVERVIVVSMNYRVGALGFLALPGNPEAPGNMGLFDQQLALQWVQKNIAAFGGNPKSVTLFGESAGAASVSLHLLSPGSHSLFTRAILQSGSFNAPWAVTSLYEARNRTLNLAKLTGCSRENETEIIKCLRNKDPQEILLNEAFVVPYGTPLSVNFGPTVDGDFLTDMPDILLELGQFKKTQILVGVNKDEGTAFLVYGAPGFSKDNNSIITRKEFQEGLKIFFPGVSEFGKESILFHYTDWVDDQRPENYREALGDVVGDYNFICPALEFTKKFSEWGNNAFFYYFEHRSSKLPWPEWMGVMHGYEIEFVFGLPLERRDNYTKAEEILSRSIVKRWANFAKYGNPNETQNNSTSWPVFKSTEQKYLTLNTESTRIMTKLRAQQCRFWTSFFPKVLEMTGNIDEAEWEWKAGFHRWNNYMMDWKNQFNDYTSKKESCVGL
Method: as §1, with “The” for “Propranolol hydrochloride and diltiazem hydrochloride were obtained from Sigma-Aldrich (St. Louis, MO, United States). The”
(§2) Substrate concentrations were varied in a two-fold serial dilution: BTC (5 mM–[…]) for BChE and ATC (0.5 mM–[…]) for AChE. Each well received 20 µL of compound or vehicle, 20 µL of substrate, 20 µL of enzyme/DTNB master mix (for all of them 4x working solution in order to reach final concentration), and 20 µL of buffer. Absorbance at 412 nm was measured every 2 min for 15–20 min.

human plasma BChE = target: T3, human plasma BChE (Homo sapiens, UniProt P06276); assay: Ex vivo enzyme-inhibition kinetic analysis (Ki and inhibition mode); assay type: biochemical; conditions: for Inhibition mode (BChE): best-fit nonlinear regression model
T3 construct: pooled human plasma (source of BChE) were used as enzyme sources; from tissue; host or cells: pooled human plasma from patients with mild-to-moderate AD
T3 sequence (P06276 29-602): as above
Method: as §1, with “The” for “Propranolol hydrochloride and diltiazem hydrochloride were obtained from Sigma-Aldrich (St. Louis, MO, United States). The”
as §2
To further elucidate the mechanism of inhibition, inhibition constant (Kᵢ) values and inhibition modes were determined using nonlinear regression models in GraphPad Prism 10. Multiple models were tested, including competitive, noncompetitive, uncompetitive, and mixed inhibition. The optimal model for each compound was selected based on residual analysis and the Akaike Information Criterion (AIC), ensuring robust statistical support. In cases of mixed inhibition, the α parameter was used to characterize the relative affinity of the inhibitor for the enzyme-substrate complex versus the free enzyme.

plasma-derived BChE = target: T4, plasma-derived BChE (Homo sapiens, UniProt P06276); assay: Single-concentration screening, modified Ellman's assay (BChE); assay type: biochemical; conditions: read-out: BChE inhibition relative to vehicle control
T4 construct: pooled human plasma (source of BChE) were used as enzyme sources; from tissue; host or cells: pooled human plasma from patients with mild-to-moderate AD
T4 sequence (P06276 29-602): as above
Method: Propranolol hydrochloride and diltiazem hydrochloride were obtained from Sigma-Aldrich (St. Louis, MO, United States). The stock solution was prepared at 10 mM in DMSO. Acetylthiocholine iodide (ATC), butyrylthiocholine iodide (BTC), and 5,5′-dithiobis-(2-nitrobenzoic acid) (DTNB) were also purchased from Sigma-Aldrich. Recombinant human AChE (Cat. No. C1682) and pooled human plasma (source of BChE) were used as enzyme sources. The pooled human plasma was prepared as described before ([Vijayaraghavan et al., 2013]). Briefly, pooled plasma samples were prepared by combining equal volumes from a large cohort of patients clinically diagnosed with mild-to-moderate AD. […]
Cholinesterase activity was measured using a modified Ellman’s colorimetric method adapted for high-throughput screening ([Kumar et al., 2017]; [2020]; [Darreh-Shori et al., 2024]). […] The plate reader (Tecan Infinite M1000) was configured for a 384-well transparent plate in absorbance mode at 412 nm, with kinetic reading taken over 10 min at 1-min intervals. Following incubation, 20 µL of Master Mix Buffer (MMB) cocktail was added to each well using a multichannel pipette, and the plate reading was initiated inmediately. […] Upon completion of the reading, the data file was saved, enzyme activity rates were extracted, and the data were analyzed. […]

[1] = physiologically relevant concentration; ref Cruickshank and Neil-Dwyer, 1985; cited from earlier work
BChE = conditions: at approximately 0.59 µM in plasma and 10 µM in brain tissue; ref Cruickshank and Neil-Dwyer, 1985; cited from earlier work

T1 sequence (P22303 32-614): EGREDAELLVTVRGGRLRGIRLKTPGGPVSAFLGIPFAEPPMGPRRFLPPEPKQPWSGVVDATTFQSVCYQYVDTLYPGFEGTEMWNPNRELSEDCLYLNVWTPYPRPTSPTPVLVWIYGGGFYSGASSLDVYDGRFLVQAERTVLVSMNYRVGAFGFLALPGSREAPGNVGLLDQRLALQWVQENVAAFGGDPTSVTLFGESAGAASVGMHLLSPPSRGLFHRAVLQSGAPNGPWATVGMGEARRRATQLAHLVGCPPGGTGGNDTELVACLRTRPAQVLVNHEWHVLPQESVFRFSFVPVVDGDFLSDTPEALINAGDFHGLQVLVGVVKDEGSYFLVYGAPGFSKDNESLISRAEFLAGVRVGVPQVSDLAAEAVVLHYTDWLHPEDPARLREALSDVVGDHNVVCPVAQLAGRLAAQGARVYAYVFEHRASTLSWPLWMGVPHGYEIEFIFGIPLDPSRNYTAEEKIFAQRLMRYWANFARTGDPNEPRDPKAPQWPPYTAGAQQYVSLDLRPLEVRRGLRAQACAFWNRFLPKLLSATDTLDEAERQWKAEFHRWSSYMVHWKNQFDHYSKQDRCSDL

Q: For CCN(CC)C(C)CN1c2ccccc2Sc2ccccc21 (stereo not shown) [Ethopropazine], which “AChE inhibition relative to vehicle control” value (Recombinant human AChE; single concentration 100 µM) is on record?
A: no inhibition

Q: And the IC50 (human BChE)?
A: 2810 nM

Q: What about the “Inhibition mode (BChE)” value (human plasma BChE) of the same molecule?
A: Mixed-competitive

Q: What about the “Inhibition mode (BChE)” value (human plasma BChE; listed as ethopropazine) of the same molecule?
A: mixed competitor

Q: With CNC(=O)Oc1ccc2c(c1)[C@]1(C)CCN(C)[C@@H]1N2C [Physostigmine] as the molecule, how does the “Inhibition mode (BChE)” value (human plasma BChE) read?
A: Competitive

Q: What about the “Inhibition mode (BChE)” value (human plasma BChE; listed as physostigmine) of the same molecule?
A: competitive inhibition

Q: What does the source list for COc1ccc([C@@H]2Sc3ccccc3N(CCN(C)C)C(=O)[C@@H]2OC(C)=O)cc1 [Diltiazem, diltiazem hydrochloride]?
A: inhibition at 100 µM (Recombinant human AChE; single concentration 100 µM, read-out: AChE inhibition relative to vehicle control): 2%; inhibition at 100 µM (plasma-derived BChE; single concentration 100 µM, 5 mM BTC): > 80%; IC50 (human BChE): 153000 nM; Ki (human plasma BChE): 2300 nM; Inhibition mode (BChE) (human plasma BChE): competitive inhibitor; Inhibition mode (BChE) (human plasma BChE; listed as diltiazem): competitive inhibition

Q: With CC(C)NCC(O)COc1cccc2ccccc12 (stereo not shown) [Propranolol, Propranolol hydrochloride] as the molecule, how does the inhibition at 100 µM (Recombinant human AChE; read-out: AChE inhibition relative to vehicle control, single concentration 100 µM) read?
A: 18%

Q: What about the inhibition at 100 µM (plasma-derived BChE) of the same molecule?
A: > 80%

Q: And the IC50 (human BChE; 5 mM BTC as substrate, plasma BChE, read-out: IC50 (BChE))?
A: 55600 nM

Q: And the Ki (human plasma BChE)?
A: 190 nM

Q: What about the “Inhibition mode (BChE)” value (human plasma BChE) of the same molecule?
A: competitive inhibitor

Q: What about the “Inhibition mode (BChE)” value (human plasma BChE; listed as propranolol) of the same molecule?
A: competitive inhibition

Q: And the “Concentration that reduced BChE activity to half of its baseline level” value (human plasma BChE; substrate concentration range of 0.08 mM–0.62 mM)?
A: 0.19 µM

Q: And the Concentration in plasma [1]?
A: approximately 0.59 µM

Q: What about the “Concentration in the brain tissue” value [1] of the same molecule?
A: ~10 µM

Q: And the “Reduction of BChE activity” value (BChE)?
A: approximately 50%
